The results in this text go back to patent US9012651B2, “TRPV3 modulators” (AbbVie Inc., priority 2011, dated 2015).

Where only a bound is given, the exact number is not on record here.

Chain of human TRPV3 receptors (Q8NET8 whole entry): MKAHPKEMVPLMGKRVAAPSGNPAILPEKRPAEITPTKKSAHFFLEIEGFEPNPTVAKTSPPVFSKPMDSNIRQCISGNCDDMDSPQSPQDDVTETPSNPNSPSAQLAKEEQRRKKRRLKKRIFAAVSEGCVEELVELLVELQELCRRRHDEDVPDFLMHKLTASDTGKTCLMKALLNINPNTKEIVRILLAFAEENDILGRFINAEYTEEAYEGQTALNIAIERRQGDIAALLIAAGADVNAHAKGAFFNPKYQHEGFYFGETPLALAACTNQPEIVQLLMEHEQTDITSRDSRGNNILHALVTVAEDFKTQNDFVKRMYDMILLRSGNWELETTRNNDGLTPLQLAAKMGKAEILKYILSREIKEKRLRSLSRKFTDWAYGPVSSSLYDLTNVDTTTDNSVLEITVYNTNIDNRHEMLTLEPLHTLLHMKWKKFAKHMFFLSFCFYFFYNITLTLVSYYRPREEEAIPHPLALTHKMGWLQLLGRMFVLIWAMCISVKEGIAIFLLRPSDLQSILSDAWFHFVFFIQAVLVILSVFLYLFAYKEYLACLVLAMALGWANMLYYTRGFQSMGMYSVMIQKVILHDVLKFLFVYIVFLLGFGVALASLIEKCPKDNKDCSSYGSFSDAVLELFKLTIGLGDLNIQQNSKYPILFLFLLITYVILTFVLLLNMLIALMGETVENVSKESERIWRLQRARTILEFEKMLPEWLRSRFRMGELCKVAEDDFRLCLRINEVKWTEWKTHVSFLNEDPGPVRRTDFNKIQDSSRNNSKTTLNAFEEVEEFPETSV

The assay addresses human TRPV3 receptors (Homo sapiens (Human), UniProt Q8NET8). Briefly: Calcium flux assay (FLIPR TETRA), inhibition of the 2-APB response. The class given is cell-based. The following applies: recombinant HEK293 cells stably expressing TRPV3, Calcium-4 dye, 2-APB at its EC80. Put shortly:
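Responses are given relative to the maximal 2-APB signal in the absence of compound, using peak fluorescence over baseline. Measured by FLIPR Tetra calcium flux in stable human and mouse TRPV3 HEK293 cells after 90-120 min dark dye incubation.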
For orientation: Calcium flux is commonly read through the fluorescence of an indicator in the cells.
Usually IC50 stands for the concentration that inhibits the measured activity by half. Consider `OC[C@H](NCc1ccnc(-c2ccc(C(F)(F)F)cc2)n1)c1ccccc1` [Example 139, (2R)-2-phenyl-2-[({2-[4-(trifluoromethyl)phenyl]pyrimidin-4-yl}methyl)amino]ethanol], for which the IC50 was 8.08 µM.
With `OC[C@@H](Cc1ccccc1)NCc1ccnc(-c2ccc(C(F)(F)F)cc2)n1` [Example 140, (2R)-3-phenyl-2-[({2-[4-(trifluoromethyl)phenyl]pyrimidin-4-yl}methyl)amino]propan-1-ol] the figure was over 20 µM.
On to `CCC[C@H](CO)NCc1ccnc(-c2ccc(C(F)(F)F)cc2)n1` [Example 141, (2R)-2-[({2-[4-(trifluoromethyl)phenyl]pyrimidin-4-yl}methyl)amino]pentan-1-ol], for which the IC50 worked out at 4.9 µM.
With `CC(C)C[C@H](CO)NCc1ccnc(-c2ccc(C(F)(F)F)cc2)n1` [Example 142, (2R)-4-methyl-2-[({2-[4-(trifluoromethyl)phenyl]pyrimidin-4-yl}methyl)amino]pentan-1-ol] the figure was 7.3 µM; with `CCC(C)C(CO)NCc1ccnc(-c2ccc(C(F)(F)F)cc2)n1` (stereo not drawn) [Example 143, 3-methyl-2-[({2-[4-(trifluoromethyl)phenyl]pyrimidin-4-yl}methyl)amino]pentan-1-ol], 12.4 µM; with `COCC(CO)NCc1ccnc(-c2ccc(C(F)(F)F)cc2)n1` (stereo not drawn) [Example 144, 3-methoxy-2-[({2-[4-(trifluoromethyl)phenyl]pyrimidin-4-yl}methyl)amino]propan-1-ol], 15.6 µM.
With `OC[C@H](NCc1ccnc(-c2ccc(C(F)(F)F)cc2)n1)C1CC1` [Example 145, (2R)-2-cyclopropyl-2-[({2-[4-(trifluoromethyl)phenyl]pyrimidin-4-yl}methyl)amino]ethanol] the figure was 3.05 µM; with `OC[C@H](NCc1ccnc(-c2ccc(C(F)(F)F)cc2)n1)C1CCCCC1` [Example 146, (2R)-2-cyclohexyl-2-[({2-[4-(trifluoromethyl)phenyl]pyrimidin-4-yl}methyl)amino]ethanol], 8.65 µM.
As for `CC(C)(C)[C@H](CO)NCc1ccnc(-c2ccc(C(F)(F)F)cc2)n1` [Example 147, (2R)-3,3-dimethyl-2-[({2-[4-(trifluoromethyl)phenyl]pyrimidin-4-yl}methyl)amino]butan-1-ol], the figure is 6.43 µM; as for `CC(O)C(C)NCc1ccnc(-c2ccc(C(F)(F)F)cc2)n1` (stereo not drawn) [Example 148, 3-[({2-[4-(trifluoromethyl)phenyl]pyrimidin-4-yl}methyl)amino]butan-2-ol], 1.87 µM; as for `C[C@H](O)[C@H](CO)NCc1ccnc(-c2ccc(C(F)(F)F)cc2)n1` [Example 149, (2S,3S)-2-[({2-[4-(trifluoromethyl)phenyl]pyrimidin-4-yl}methyl)amino]butane-1,3-diol], over 20 µM.
For the compound `C[C@@H](O)[C@@H](CO)NCc1ccnc(-c2ccc(C(F)(F)F)cc2)n1` [Example 150, (2R,3R)-2-[({2-[4-(trifluoromethyl)phenyl]pyrimidin-4-yl}methyl)amino]butane-1,3-diol], the IC50 was 3.82 µM.
For `C[C@H](O)[C@@H](CO)NCc1ccnc(-c2ccc(C(F)(F)F)cc2)n1` [Example 151, (2R,3S)-2-[({2-[4-(trifluoromethyl)phenyl]pyrimidin-4-yl}methyl)amino]butane-1,3-diol], the IC50 was over 20 µM.
Turning to `C[C@@H](O)[C@H](CO)NCc1ccnc(-c2ccc(C(F)(F)F)cc2)n1` [Example 152, (2S,3R)-2-[({2-[4-(trifluoromethyl)phenyl]pyrimidin-4-yl}methyl)amino]butane-1,3-diol], the IC50 is over 20 µM.
As for `OC[C@H](NCc1ccnc(-c2ccc(C(F)(F)F)cc2)n1)[C@@H](O)c1ccccc1` [Example 153, (1S,2S)-1-phenyl-2-[({2-[4-(trifluoromethyl)phenyl]pyrimidin-4-yl}methyl)amino]propane-1,3-diol], the figure is 9.31 µM; as for `OC[C@@H](NCc1ccnc(-c2ccc(C(F)(F)F)cc2)n1)[C@H](O)c1ccccc1` [Example 154, (1R,2R)-1-phenyl-2-[({2-[4-(trifluoromethyl)phenyl]pyrimidin-4-yl}methyl)amino]propane-1,3-diol], over 20 µM; as for `CC(C)[C@@H](CO)NCc1ccnc(-c2ccc(C(F)(F)F)cc2)n1` [Example 155, (2S)-3-methyl-2-[({2-[4-(trifluoromethyl)phenyl]pyrimidin-4-yl}methyl)amino]butan-1-ol], over 20 µM.
`CC(C)(CO)CNCc1ccnc(-c2ccc(C(F)(F)F)cc2)n1` [Example 156, 2,2-dimethyl-3-[({2-[4-(trifluoromethyl)phenyl]pyrimidin-4-yl}methyl)amino]propan-1-ol]: the IC50 was over 20 µM.
As to `OCC1(CNCc2ccnc(-c3ccc(C(F)(F)F)cc3)n2)CCC1` [Example 157, (1-{[({2-[4-(trifluoromethyl)phenyl]pyrimidin-4-yl}methyl)amino]methyl}cyclobutyl)methanol], the IC50 was over 20 µM.
As for `OCC1(CNCc2ccnc(-c3ccc(C(F)(F)F)cc3)n2)CCCC1` [Example 158, (1-{[({2-[4-(trifluoromethyl)phenyl]pyrimidin-4-yl}methyl)amino]methyl}cyclopentyl)methanol], the figure is over 20 µM.
For the compound `OCC1(CNCc2ccnc(-c3ccc(C(F)(F)F)cc3)n2)CCCCC1` [Example 159, (1-{[({2-[4-(trifluoromethyl)phenyl]pyrimidin-4-yl}methyl)amino]methyl}cyclohexyl)methanol], the IC50 is 17.6 µM.
As for `OCC1(CNCc2ccnc(-c3ccc(C(F)(F)F)cc3)n2)COC1` [Example 160], the figure is over 20 µM.
With `OCC1(CNCc2ccnc(-c3ccc(C(F)(F)F)cc3)n2)CCOCC1` [Example 161] the figure was over 20 µM; with `OCC[C@@H](NCc1ccnc(-c2ccc(C(F)(F)F)cc2)n1)c1ccccc1` [Example 162, (3R)-3-phenyl-3-[({2-[4-(trifluoromethyl)phenyl]pyrimidin-4-yl}methyl)amino]propan-1-ol], over 20 µM; with `OCC[C@H](NCc1ccnc(-c2ccc(C(F)(F)F)cc2)n1)c1ccccc1` [Example 163, (3S)-3-phenyl-3-[({2-[4-(trifluoromethyl)phenyl]pyrimidin-4-yl}methyl)amino]propan-1-ol], over 20 µM.
As for `OC(CCNCc1ccnc(-c2ccc(C(F)(F)F)cc2)n1)c1ccccc1` (stereo not drawn) [Example 164, 1-phenyl-3-[({2-[4-(trifluoromethyl)phenyl]pyrimidin-4-yl}methyl)amino]propan-1-ol], the figure is over 20 µM; as for `O[C@H]1CCCC[C@@H]1CNCc1ccnc(-c2ccc(C(F)(F)F)cc2)n1` [Example 165, (1S,2R)-2-{[({2-[4-(trifluoromethyl)phenyl]pyrimidin-4-yl}methyl)amino]methyl}cyclohexanol], over 20 µM; as for `O[C@@H]1CCCC[C@@H]1CNCc1ccnc(-c2ccc(C(F)(F)F)cc2)n1` [Example 166, (1R,2R)-2-{[({2-[4-(trifluoromethyl)phenyl]pyrimidin-4-yl}methyl)amino]methyl}cyclohexanol], over 20 µM.
Regarding `OC[C@H]1CCCC[C@@H]1NCc1ccnc(-c2ccc(C(F)(F)F)cc2)n1` [Example 167, {(1S,2S)-2-[({2-[4-(trifluoromethyl)phenyl]pyrimidin-4-yl}methyl)amino]cyclohexyl}methanol], the IC50 is over 20 µM.
As for `OC[C@@H]1CCCC[C@@H]1NCc1ccnc(-c2ccc(C(F)(F)F)cc2)n1` [Example 168, {(1R,2S)-2-[({2-[4-(trifluoromethyl)phenyl]pyrimidin-4-yl}methyl)amino]cyclohexyl}methanol], the IC50 was over 20 µM.
With `OC[C@@H]1[C@H]2CC[C@H](C2)[C@@H]1NCc1ccnc(-c2ccc(C(F)(F)F)cc2)n1` [Example 169, {(1S,2R,3S,4R)-3-[({2-[4-(trifluoromethyl)phenyl]pyrimidin-4-yl}methyl)amino]bicyclo[2.2.1]hept-2-yl]methanol] the figure was over 20 µM.
As for `OC[C@H]1[C@H]2CC[C@H](C2)[C@H]1NCc1ccnc(-c2ccc(C(F)(F)F)cc2)n1` [Example 170, {(1S,2S,3R,4R)-3-[({2-[4-(trifluoromethyl)phenyl]pyrimidin-4-yl}methyl)amino]bicyclo[2.2.1]hept-2-yl]methanol], the IC50 was determined as 6.16 µM.
With `O[C@H]1CCCC[C@@H]1NCc1ccnc(-c2ccc(C(F)(F)F)cc2)n1` [Example 171, (1S,2S)-2-[({2-[4-(trifluoromethyl)phenyl]pyrimidin-4-yl}methyl)amino]cyclohexanol] the figure was 5.51 µM.
As for `O[C@@H]1CCCC[C@@H]1NCc1ccnc(-c2ccc(C(F)(F)F)cc2)n1` [Example 172, (1R,2S)-2-[({2-[4-(trifluoromethyl)phenyl]pyrimidin-4-yl}methyl)amino]cyclohexanol], the figure is 4.93 µM; as for `O[C@@H]1CCC[C@@H]1NCc1ccnc(-c2ccc(C(F)(F)F)cc2)n1` [Example 173, (1R,2S)-2-[({2-[4-(trifluoromethyl)phenyl]pyrimidin-4-yl}methyl)amino]cyclopentanol], over 20 µM.
`O[C@H]1CCC[C@@H]1NCc1ccnc(-c2ccc(C(F)(F)F)cc2)n1` [Example 174, (1S,2S)-2-[({2-[4-(trifluoromethyl)phenyl]pyrimidin-4-yl}methyl)amino]cyclopentanol]: the IC50 was over 20 µM.
As for `CC(C)(O)CNCc1ccnc(-c2ccc(C(F)(F)F)cc2)n1` [Example 175, 2-methyl-1-[({2-[4-(trifluoromethyl)phenyl]pyrimidin-4-yl}methyl)amino]propan-2-ol], the figure is over 20 µM; as for `OC1(CNCc2ccnc(-c3ccc(C(F)(F)F)cc3)n2)CC1` [Example 176, 1-{[({2-[4-(trifluoromethyl)phenyl]pyrimidin-4-yl}methyl)amino]methyl}cyclopropanol], over 20 µM; as for `OC1(CNCc2ccnc(-c3ccc(C(F)(F)F)cc3)n2)CCCC1` [Example 177, 1-{[({2-[4-(trifluoromethyl)phenyl]pyrimidin-4-yl}methyl)amino]methyl}cyclopentanol], over 20 µM.
